In US5852007A, “Cysteine and serine protease inhibitors containing D-amino acid at the P2 position, methods of making same, and methods of using same” (priority 1997, dated 1998):
Square brackets hold non-standard residues; d marks the D form. Peptide text beside a SMILES is read from it. * marks the point of attachment. ξ: configuration not given here. ξF = NC(Cc1ccccc1)C(=O)O; Bn = c1ccc(C*)cc1; Ms = CS(=O)(=O)*; CH2F = FC*

What was measured:
[1] = target: T1, α-chymotrypsin (Bos taurus, UniProt P00766); assay: Inhibition of α-chymotrypsin; type: biochemical; conditions: Table II; 10 uM; read-out: Chymotrypsin % I @ 10 uM
T1 construct: purchased Sigma Chem. Co. C-3142
Procedure, shortened: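 Enzyme added to inhibitor first, then reaction started with substrate; no calcium activation needed as enzyme is constitutively active. Fluorogenic substrate hydrolysis read every 5 min up to 30 min ([…]).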

[2] = target: T2, Recombinant human calpain I (Homo sapiens, UniProt P07384); assay: Rate of inactivation of calpain I (second order rate constant); type: biochemical; conditions: Table II, read-out: Calpain Inactivation Rates
T2 construct: made in house
T2 sequence (P07384 1-714): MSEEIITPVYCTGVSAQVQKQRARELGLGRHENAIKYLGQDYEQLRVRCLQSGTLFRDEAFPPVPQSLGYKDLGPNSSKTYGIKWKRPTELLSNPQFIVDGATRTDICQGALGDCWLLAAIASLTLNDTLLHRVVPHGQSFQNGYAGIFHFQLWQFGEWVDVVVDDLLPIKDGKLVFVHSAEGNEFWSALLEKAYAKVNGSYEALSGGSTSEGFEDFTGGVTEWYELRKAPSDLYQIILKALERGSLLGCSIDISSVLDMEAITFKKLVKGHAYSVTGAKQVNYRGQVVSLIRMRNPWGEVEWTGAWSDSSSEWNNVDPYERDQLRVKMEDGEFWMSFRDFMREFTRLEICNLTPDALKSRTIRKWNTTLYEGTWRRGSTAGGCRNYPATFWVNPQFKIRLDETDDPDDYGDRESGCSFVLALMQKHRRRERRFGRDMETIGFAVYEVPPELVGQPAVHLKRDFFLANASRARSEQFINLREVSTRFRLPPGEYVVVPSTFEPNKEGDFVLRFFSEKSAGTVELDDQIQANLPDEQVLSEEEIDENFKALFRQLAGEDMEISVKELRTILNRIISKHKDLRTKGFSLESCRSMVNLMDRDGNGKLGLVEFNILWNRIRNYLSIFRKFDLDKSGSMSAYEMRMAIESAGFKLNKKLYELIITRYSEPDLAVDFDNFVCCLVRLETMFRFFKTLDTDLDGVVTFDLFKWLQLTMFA
Description: To evaluate inhibitory activity, stock solutions (40 times concentrated) of exemplary compounds of the invention were prepared in 100% anhydrous DMSO and 5 μL of each inhibitor preparation were aliquoted into each of three wells of a 96-well plate. Recombinant human calpain I, prepared by the method of Meyer et al. (Biochem. J. 314: 511-519 (1996)), was diluted into assay buffer (i.e., 50 mM Tris, 50 mM NaCl, 1 mM EDTA, 1 mM EGTA, and 5 mM-mercaptoethanol, pH 7.5 including 0.2 mM Succ-Leu-TyrMNA) and 175 μL aliquoted into the same wells containing the independent inhibitor stocks as well as to positive control wells containing 5 μL DMSO, but no compound. To start the reaction, 20 μL of 50 mM CaCl2 in assay buffer was added to all wells of the plate, excepting three, which were used as background signal baseline controls. Substrate hydrolysis was monitored every 5 minutes for a total of 30 minutes. Substrate hydrolysis in the absence of inhibitor was linear for up to 15 minutes.
Inhibition of calpain I activity was calculated as the percent decrease in the rate of substrate hydrolysis in the presence of inhibitor (VI) relative to the rate in its absence (VO). Comparison between VO and VI was made within the linear range for substrate hydrolysis. For screening, compounds were tested at 10, 1.0, and 0.1 μM. Compounds having 50% inhibition at 10 μM were considered active. […] The results were plotted as % inhibition versus log inhibitor concentration and the IC50 was calculated from linear regression of the data. Apparent second order rate constants were determined from analysis of reaction progress curves under pseudo-first order conditions. Each determination represents the means of three or more independent single cuvette analyses continually monitored via a Perkin-Elmer LS50B spectrofluorimeter. […]
where y is the product formed at time t. […] The apparent second order rate constant kapp was determined as Kobs /[I]. […]

[3] = target: T3, thrombin (Homo sapiens, UniProt P00734); assay: Inhibition of thrombin; type: biochemical; conditions: Table II; 10 uM; read-out: Thrombin % I @ 10 uM
T3 construct: purchased Sigma Chem. Co. T-7009

[4] = test system: spectrin breakdown; assay: Spectrin breakdown in gerbil global ischemia model (CA1 hippocampal sector, Western blotting); type: in vivo; conditions: FIG. 1
Description: Gerbils were anesthetized using 4% isolflurane volatilized using a gas mixture consisting of 30% O2 and 70% N2. After the induction of anesthesia, a preferred compound of the invention, compound 40 (Example 34), was administered either immediately before the induction of ischemia and 24 hours after the initiation of reperfusion (FIG. 2), or three hours after the initiation of reperfusion and 24 hours after the initiation of reperfusion (FIG. 3). To induce ischemia, the common carotid arteries were exposed and occluded bilaterally for 7 minutes. Gerbil core temperature was carefully regulated at 38° C. by a thermostatically controlled heat lamp. Reperfusion was initiated by the release of the arterial occlusion, whereupon anesthesia was terminated so that the gerbils began to breath room air. The neck incision was closed, and the gerbils were returned to the incubator for one hour to maintain their core temperature. At 1 hour of reperfusion, anesthesia was induced by inhalation of CO2 and the gerbils were sacrificed. The CA1 hippocampal sector was dissected using a hole punch (0.3 mm), and spectrin breakdown products (BDP) were determined by Western Blotting. Spectrin breakdown was quantified by image analysis, and percent inhibition was calculated by integrated optical density. […]

[5] = test system: hippocampal CA1 neurons; assay: Survival of hippocampal CA1 neurons in gerbil global ischemia model; type: in vivo
Description: Gerbils were anesthetized using 4% isolflurane volatilized using a gas mixture consisting of 30% O2 and 70% N2. […] To induce ischemia, the common carotid arteries were exposed and occluded bilaterally for 7 minutes. Gerbil core temperature was carefully regulated at 38° C. by a thermostatically controlled heat lamp. Reperfusion was initiated by the release of the arterial occlusion, whereupon anesthesia was terminated so that the gerbils began to breath room air. The neck incision was closed, and the gerbils were returned to the incubator for one hour to maintain their core temperature. At 1 hour of reperfusion, anesthesia was induced by inhalation of CO2 and the gerbils were sacrificed.
To quantify histopathological damage, the gerbils were returned to their home cages after one hour reperfusion in the incubator and then sacrificed, as described above, four days later. The brains were rapidly removed, frozen on dry ice, and then sectioned using a cryostat. Twenty micron sections were stained with thionin, and surviving neurons in the hippocampal CA1 sector were counted using computer assisted image analysis.

[6] = target: T4, cathepsin L (Homo sapiens, UniProt P07711); assay: Inhibition of cathepsin L; type: biochemical; conditions: Table II; read-out: Cat L IC50
T4 construct: purchased Calbiochem 219402
Description: (§1) Additionally,the order of reagents added to the plate was altered because both enzymes are constitutively active. Following inhibitor addition to the plates, appropriate 2× concentrated stock dilutions of the enzyme preparations were made in assay buffer and 100 μl added to each well. The assay was initiated by addition of 100 μl of 2× concentrated stock dilution of substrate in assay buffer.

[7] = target: T2, Recombinant human calpain I; assay: Inhibition of calpain I activity; type: biochemical; conditions: Table II
[8] = target: T5, cathepsin B (Homo sapiens, UniProt P07858); assay: Inhibition of cathepsin B; type: biochemical; conditions: Table II; read-out: Cat B IC50
T5 construct: purchased Calbiochem 219364
Description: as §1

T4 sequence (P07711 114-288 limits assumed): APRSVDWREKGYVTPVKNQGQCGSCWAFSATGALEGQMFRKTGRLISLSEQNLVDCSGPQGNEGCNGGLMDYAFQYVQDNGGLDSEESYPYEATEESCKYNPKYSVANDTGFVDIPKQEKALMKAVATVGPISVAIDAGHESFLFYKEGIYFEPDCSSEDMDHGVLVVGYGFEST
T4 sequence (P07711 292-333 limits assumed): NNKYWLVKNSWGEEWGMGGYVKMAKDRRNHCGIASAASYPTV

Row | inhibition at 10 µM [1] [%] | kinact/KI [2] [M⁻¹ s⁻¹] | inhibition at 10 µM [3] [%] | IC50 [6] [µM] | Compound | reduction of spectrin breakdown [4] | suppression of spectrin breakdown in CA1 hippocampal sectors ([4]; vs vehicle-treated control gerbils, p<0.0001) | number of surviving hippocampal CA1 neurons relative to controls ([5]; dosed immediately before ischemia and 24 hours after initiation of reperfusion, FIG. 2) | neuroprotection at four days after the ischemic insult ([5]; dosed immediately before ischemia and 24 hours after initiation of reperfusion, p<0.01, FIG. 2) | neuroprotective effect ([5]; dosed three hours and 24 hours after initiation of reperfusion, p<0.02, FIG. 3) | IC50 [7] [µM] | IC50 [8] [µM]
1 | 14 | 26600 | 0 | – | CS(=O)(=O)N[C@H](CSCc1ccccc1)C(=O)NC(Cc1ccccc1)C(=O)CF (stereo partly drawn) [Compound 33, BnS--CH2 CH(NHS(=O)2 CH3)C(=O)-Phe--CH2] (Ms-[dC](Bn)-[ξF]-CH2F) | – | – | – | – | – | – | –
2 | 14 | 21000 | 0 | 1.8 | CS(=O)(=O)N[C@H](COCc1ccccc1)C(=O)NC(Cc1ccccc1)C(=O)CF (stereo partly drawn) [Compound 34, BnO--CH2 CH(NHS(=O)2 CH3)C(=O)-Phe--CH2] | – | – | – | – | – | – | –
3 | 7 | 2800 | 0 | 1.8 | CS(=O)(=O)N[C@H](CC(=O)N1CCc2ccccc2C1)C(=O)NC(Cc1ccccc1)C(=O)CF (stereo partly drawn) [Compound 20, THIQ-2-C(=O)CH2 CH(NHS(=O)2 CH3)C(=O)-Phe--CH2 F] | – | – | – | – | – | – | –

Row | Compound | inhibition at 10 µM [1] [%] | kinact/KI [2] [M⁻¹ s⁻¹] | inhibition at 10 µM [3] [%] | IC50 [6] [µM] | reduction of spectrin breakdown [4] | suppression of spectrin breakdown in CA1 hippocampal sectors ([4]; vs vehicle-treated control gerbils, p<0.0001) | number of surviving hippocampal CA1 neurons relative to controls ([5]; dosed immediately before ischemia and 24 hours after initiation of reperfusion, FIG. 2) | neuroprotection at four days after the ischemic insult ([5]; dosed immediately before ischemia and 24 hours after initiation of reperfusion, p<0.01, FIG. 2) | neuroprotective effect ([5]; dosed three hours and 24 hours after initiation of reperfusion, p<0.02, FIG. 3) | IC50 [7] [µM] | IC50 [8] [µM]
4 | CS(=O)(=O)N[C@H](COCc1ccccc1)C(=O)N[C@H](C=O)Cc1ccccc1 [Compound 40, BnO--CH2 CH(NHS(=O)2 CH3)C(=O)-Phe--H] | 23 | – | 0 | 0.009 | approximately 50% | statistically significant suppression of spectrin breakdown | more than doubled the number of surviving hippocampal CA1 neurons | neuroprotective at four days after the ischemic insult | neuroprotective effect | 0.011 | 0.042
